Assay results reported in patent US20260184663A1, “INDENE COMPOUNDS, PHARMACEUTICAL COMPOSITIONS THEREOF, AND THEIR THERAPEUTIC APPLICATIONS” (NucMito Pharmaceuticals co. Ltd., priority 2022, published 2026).

Experiments:
Assay type in all cases: cell-based
[1] = tested on: SW480 (colon cancer); experiment: Antiproliferative activity (CCK-8 cell viability), SW480; details: Homo sapiens, 72 h, read-out: Antiproliferative activity in cancerous cells, SW480 (inhibition of cell growth); for inhibition at 3.3 µM: Compound concentration: 3.3 μM; for inhibition at 10 µM: Compound concentration: 10 μM; for inhibition at 30 µM: Compound concentration: 30 μM
Experimental: (§1) The antiproliferative activity of a compound was determined in the following cell lines: MDA-MB-231 (breast cancer), HepG2 (liver cancer), SW480 (colon cancer), B16F10 (malignant melanoma), A431 (epidermoid carcinoma), A549 (lung adenocarcinoma), and HeLa (cervical cancer). MDA-MB-231, HepG2, SW480, B16F10, and A431 cells were cultured in Dulbecco's modified Eagle's medium (DMEM) containing 10% fetal bovine serum (FBS). HeLa cells were cultured in MEM/EBSS (MEM) containing 10% FBS. A549 cells were maintained in Kaighn's modification of Ham's F-12 medium containing 10% FBS. A Cell Counting Kit-8 (CCK-8) was used to measure the cell viability of different cells following treatment with the compound.
(§2) Briefly cells were seeded in a 96-well plate at a density of 2,000-5,000 cells/well. Following attachment, the cells were treated with the compound in media at a compound concentration of 3.3 μM, 10 μM, or 30 μM. After the cells were incubated at 37° C. for 72 h, a CCK-8 solution (10 μL) was added to each well. After incubation at 37° C. for 4 h, the absorbance value of each well was determined using a multi-well plate reader at 450 nm. The wells treated with DMSO were taken as a vehicle control. Data were also obtained similarly for all the replicates and the percentage of cell viability was determined with respect to the DMSO-treated cells. The results are summarized in Tables 2-4, wherein A represents no less than […] of cell growth; B represents no less than 30% but less than 50% inhibition of cell growth; and C represents less than 30% inhibition of cell growth.

[2] = tested on: HeLa (cervical cancer); experiment: Antiproliferative activity (CCK-8 cell viability), HeLa; details: Homo sapiens, 72 h, read-out: Antiproliferative activity in cancerous cells, HELA (inhibition of cell growth); for inhibition at 3.3 µM: Compound concentration: 3.3 μM; for inhibition at 10 µM: Compound concentration: 10 μM; for inhibition at 30 µM: Compound concentration: 30 μM
Experimental: as §1, §2

[3] = tested on: A431 (epidermoid carcinoma); experiment: Antiproliferative activity (CCK-8 cell viability), A431; details: Homo sapiens, 72 h, read-out: Antiproliferative activity in cancerous cells, A431 (inhibition of cell growth); for inhibition at 3.3 µM: A-431, Compound concentration: 3.3 μM; for inhibition at 10 µM: A-431, Compound concentration: 10 μM; for inhibition at 30 µM: A-431, Compound concentration: 30 μM
Experimental: as §1, §2

[4] = tested on: HepG2 (liver cancer); experiment: Antiproliferative activity (CCK-8 cell viability), HepG2; details: Homo sapiens, 72 h, read-out: Antiproliferative activity in cancerous cells, HepG2 (inhibition of cell growth); for inhibition at 3.3 µM: Compound concentration: 3.3 μM; for inhibition at 10 µM: Compound concentration: 10 μM; for inhibition at 30 µM: Compound concentration: 30 μM
Experimental: as §1, §2

[5] = tested on: MDA-MB-231 (breast cancer); experiment: Antiproliferative activity (CCK-8 cell viability), MDA-MB-231; details: Homo sapiens, 72 h, read-out: Antiproliferative activity in cancerous cells, MDA-MB-231 (inhibition of cell growth); for inhibition at 3.3 µM: Compound concentration: 3.3 μM; for inhibition at 10 µM: Compound concentration: 10 μM; for inhibition at 30 µM: Compound concentration: 30 μM
Experimental: as §1, §2

[6] = tested on: B16F10 (malignant melanoma); experiment: Antiproliferative activity (CCK-8 cell viability), B16F10; details: Mus musculus, 72 h, read-out: Antiproliferative activity in cancerous cells, B16F10 (inhibition of cell growth); for inhibition at 3.3 µM: B16-F10, Compound concentration: 3.3 μM; for inhibition at 10 µM: B16-F10, Compound concentration: 10 μM; for inhibition at 30 µM: B16-F10, Compound concentration: 30 μM
Experimental: as §1, §2

[7] = tested on: A549 (lung adenocarcinoma); experiment: Antiproliferative activity (CCK-8 cell viability), A549; details: Homo sapiens, 72 h, read-out: Antiproliferative activity in cancerous cells, A549 (inhibition of cell growth); for inhibition at 3.3 µM: Compound concentration: 3.3 μM; for inhibition at 10 µM: Compound concentration: 10 μM; for inhibition at 30 µM: Compound concentration: 30 μM
Experimental: as §1, §2

| SMILES | inhibition at 3.3 µM [1] | inhibition at 10 µM [1] | inhibition at 30 µM [1] | inhibition at 3.3 µM [2] | inhibition at 10 µM [2] | inhibition at 30 µM [2] | inhibition at 3.3 µM [3] | inhibition at 10 µM [3] | inhibition at 30 µM [3] | inhibition at 3.3 µM [4] | inhibition at 10 µM [4] | inhibition at 30 µM [4] | inhibition at 3.3 µM [5] | inhibition at 10 µM [5] | inhibition at 30 µM [5] | inhibition at 3.3 µM [6] | inhibition at 10 µM [6] | inhibition at 30 µM [6] | inhibition at 3.3 µM [7] | inhibition at 10 µM [7] | further results |
| --- | --- | --- | --- | --- | --- | --- | --- | --- | --- | --- | --- | --- | --- | --- | --- | --- | --- | --- | --- | --- | --- |
| CC1=C(CC(=O)O)c2cc(Cl)c(Cl)cc2/C1=C/c1ccc(Oc2ccc(F)cc2)cc1 [E28, (E)-2-(5,6-Dichloro-1-(4-(4-fluorophenoxy)benzylidene)-2-methyl-1H-inden-3-yl)acetic acid] | < 30% | ≥ 50% | ≥ 50% | ≥ 50% | ≥ 50% | ≥ 50% | 30 to 50% | ≥ 50% | ≥ 50% | ≥ 50% | ≥ 50% | ≥ 50% | ≥ 50% | ≥ 50% | ≥ 50% | ≥ 50% | ≥ 50% | ≥ 50% | ≥ 50% | ≥ 50% | inhibition at 30 µM [7]: ≥ 50% |
| CC1=C(CC(=O)O)c2cc(Cl)ccc2/C1=C\c1cccc(Oc2ccc(C(F)(F)F)cc2)c1 [C105, (Z)-2-(5-Chloro-2-methyl-1-(3-(4-(trifluoromethyl)phenoxy)benzylidene)-1H-inden-3-yl)acetic acid] | ≥ 50% | ≥ 50% | – | ≥ 50% | ≥ 50% | – | ≥ 50% | ≥ 50% | – | ≥ 50% | ≥ 50% | – | ≥ 50% | ≥ 50% | – | ≥ 50% | ≥ 50% | – | ≥ 50% | ≥ 50% | – |
| CC1=C(CC(=O)O)c2cc(F)ccc2/C1=C\c1ccc(Oc2ccc(F)cc2)cc1Cl [C50, (Z)-2-(1-(2-Chloro-4-(4-fluorophenoxy)benzylidene)-5-fluoro-2-methyl-1H-inden-3-yl)acetic acid] | 30 to 50% | ≥ 50% | – | 30 to 50% | ≥ 50% | – | ≥ 50% | ≥ 50% | – | < 30% | ≥ 50% | – | < 30% | ≥ 50% | – | < 30% | ≥ 50% | – | < 30% | ≥ 50% | – |
| CC1=C(CC(=O)O)c2cc(F)ccc2/C1=C\c1cccc(C(F)(F)c2ccccc2)c1 [C301, (Z)-2-(1-(3-(Difluoro(phenyl)methyl)benzylidene)-5-fluoro-2-methyl-1H-inden-3-yl)acetic acid] | < 30% | < 30% | ≥ 50% | < 30% | ≥ 50% | ≥ 50% | < 30% | < 30% | ≥ 50% | < 30% | < 30% | ≥ 50% | ≥ 50% | ≥ 50% | ≥ 50% | 30 to 50% | ≥ 50% | ≥ 50% | < 30% | < 30% | inhibition at 30 µM [7]: ≥ 50% |
| COc1ccc(Oc2cccc(/C=C3/C(C)=C(CC(=O)O)c4cc(F)ccc43)c2)cc1Cl [C102, (Z)-2-(1-(3-(3-Chloro-4-methoxyphenoxy)benzylidene)-5-fluoro-2-methyl-1H-inden-3-yl)acetic acid] | < 30% | ≥ 50% | – | < 30% | ≥ 50% | – | ≥ 50% | ≥ 50% | – | ≥ 50% | ≥ 50% | – | ≥ 50% | ≥ 50% | – | ≥ 50% | ≥ 50% | – | ≥ 50% | ≥ 50% | – |
| COc1ccc(S(=O)(=O)Cc2ccc(/C=C3\C(C)=C(CC(=O)O)c4cc(F)ccc43)cc2)cc1 [E20, (E)-2-(5-Fluoro-1-(4-(((4-methoxyphenyl)sulfonyl)methyl)benzylidene)-2-methyl-1H-inden-3-yl)acetic acid] | 30 to 50% | 30 to 50% | ≥ 50% | < 30% | ≥ 50% | ≥ 50% | 30 to 50% | ≥ 50% | ≥ 50% | 30 to 50% | ≥ 50% | ≥ 50% | < 30% | 30 to 50% | ≥ 50% | < 30% | 30 to 50% | ≥ 50% | < 30% | 30 to 50% | inhibition at 30 µM [7]: ≥ 50% |
| CC1=C(CC(=O)O)c2cc(F)ccc2/C1=C\c1ccc(COCc2ccc(F)c(Cl)c2)cc1 [B106, (Z)-2-(1-(4-(((3-Chloro-4-fluorobenzyl)oxy)methyl)benzylidene)-5-fluoro-2-methyl-1H-inden-3-yl)acetic acid] | ≥ 50% | ≥ 50% | – | ≥ 50% | ≥ 50% | – | 30 to 50% | ≥ 50% | – | < 30% | ≥ 50% | – | ≥ 50% | ≥ 50% | – | < 30% | ≥ 50% | – | 30 to 50% | ≥ 50% | – |
| CC1=C(CC(=O)O)c2cc(F)c(F)cc2/C1=C/c1ccc(Oc2ccc(F)cc2)cc1 [E23, (E)-2-(5,6-Difluoro-1-(4-(4-fluorophenoxy)benzylidene)-2-methyl-1H-inden-3-yl)acetic acid] | < 30% | ≥ 50% | ≥ 50% | 30 to 50% | ≥ 50% | ≥ 50% | 30 to 50% | ≥ 50% | ≥ 50% | < 30% | < 30% | ≥ 50% | ≥ 50% | ≥ 50% | ≥ 50% | < 30% | ≥ 50% | ≥ 50% | < 30% | < 30% | inhibition at 30 µM [7]: ≥ 50% |
